Reference: patent US20200123104A1, “PHARMACEUTICAL AGENT THAT BINDS THE P2X7 RECEPTOR” (Indiana University Research and Technology Corporation, priority 2017, published 2020)
“And” between values parts separate entries of the source, which are not always exact repeats. Identical values can stand only once.

Experiments:
P2X7 receptor [1] = biological target: T1, P2X7 receptor (Homo sapiens, UniProt Q99572); details: read-out: P2X7 receptor affinity (KB) (converted); cited from earlier work
T1 sequence (Q99572 1-595): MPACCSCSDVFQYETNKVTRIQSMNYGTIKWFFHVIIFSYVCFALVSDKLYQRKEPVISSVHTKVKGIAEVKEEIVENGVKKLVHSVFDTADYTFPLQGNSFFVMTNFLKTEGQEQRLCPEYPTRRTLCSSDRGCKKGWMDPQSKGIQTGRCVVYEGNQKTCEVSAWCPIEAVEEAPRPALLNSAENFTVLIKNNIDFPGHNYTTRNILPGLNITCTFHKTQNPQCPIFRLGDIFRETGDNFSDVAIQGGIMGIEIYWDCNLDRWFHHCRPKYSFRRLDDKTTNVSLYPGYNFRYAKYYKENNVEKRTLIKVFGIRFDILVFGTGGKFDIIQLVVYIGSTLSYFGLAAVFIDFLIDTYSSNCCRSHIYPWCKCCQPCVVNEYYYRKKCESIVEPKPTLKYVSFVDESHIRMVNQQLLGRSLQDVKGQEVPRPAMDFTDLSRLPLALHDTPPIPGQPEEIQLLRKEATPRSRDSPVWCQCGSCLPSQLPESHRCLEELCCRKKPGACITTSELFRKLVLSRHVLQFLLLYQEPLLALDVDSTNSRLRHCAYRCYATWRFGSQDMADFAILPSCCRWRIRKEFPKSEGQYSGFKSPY

P2X7 receptor [2] = biological target: T1, P2X7 receptor; test: Competitive binding with [11C]GSK1482160 as reference tracer, membrane homogenate of HEK cells transfected with the human P2X7 gene; set-up: host or cells: HEK (human embryonic kidney) cells, membrane homogenate; details: HEK-hP2X7 membrane homogenate, [11C]GSK1482160 reference tracer
Experimental: Samples and control wells are run in triplicate at each concentration. After equilibrium has been reached, separation of bound from free [^11C]GSK1482160 radioligand is performed using a 96-well filtration apparatus. To estimate receptor association (kon) and dissociation (koff) rates, an association/dissociation kinetic experiment is performed. Association is measured as a function of time using cell membrane homogenate from HEK-P2X7 cells incubated with 2-4 concentrations of the ^18F-radioligand. Dissociation is measured in the presence of excess authentic standard once at steady state according to published methods. Radioactivity for both studies is measured on the filters (or filter plates) using a Perkin-Elmer TopCount Data is analyzed and plotted using GraphPad Prism to obtain Bmax and Kd values for the compound.

[3] = biological target: T2, human P2X7R (HEK293-hP2X7R) (Homo sapiens, UniProt Q99572); test: Saturation and kinetic radioligand binding of 11C-GSK1482160 to HEK293-hP2X7R
T2 construct: expressed in transfected cells; host or cells: HEK293
T2 sequence (Q99572 1-595): T1 sequence (Q99572 1-595)
Experimental: Receptor density (Bmax) is determined by a saturation approach as employed with each P2X7-receptor ligand employing [^11C]GSK1482160 as a convenient reference ligand that is expected to bind in the same region of the receptor. […] Samples and control wells are run in triplicate at each concentration. After equilibrium has been reached, separation of bound from free [^11C]GSK1482160 radioligand is performed using a 96-well filtration apparatus. To estimate receptor association (kon) and dissociation (koff) rates, an association/dissociation kinetic experiment is performed. Association is measured as a function of time using cell membrane homogenate from HEK-P2X7 cells incubated with 2-4 concentrations of the ^18F-radioligand. Dissociation is measured in the presence of excess authentic standard once at steady state according to published methods. Radioactivity for both studies is measured on the filters (or filter plates) using a Perkin-Elmer TopCount Data is analyzed and plotted using GraphPad Prism to obtain Bmax and Kd values for the compound.

[4] = in vivo; cited from earlier work

Ki (P2X7 receptor [2]): 5.14 ± 0.85 nM
Kd ([3]; read-out: K): 1.15 ± 0.12 nM
koff ([3]; read-out: dissociation constant koff (converted)): 0.00425 s⁻¹
SMILES: [11CH3]N1C(=O)CC[C@H]1C(=O)NCc1cccc(C(F)(F)F)c1Cl [[^11C]GSK1482160]
Kb (P2X7 receptor [1]): 95.9 nM and 95 nM
crossing of the blood-brain barrier [4]: readily crosses the blood-brain barrier
